Consider two compounds from patent US20110294764A1, “2-METHYLENE-19,26-NOR-(20S)-1alpha-HYDROXYVITAMIN D3” (priority 2009, published 2011).

Values joined by “and” are separate entries in the source; they are usually repeats but may differ in a detail not shown here. Identical values can stand only once. “Also recorded” adds a separate entry of the source. Like-named read-outs stand apart in the source and are kept apart here.

The subject of assay [1] is Sprague-Dawley rats. In words: Bone calcium mobilization (serum calcium). The class given is in vivo, rat. Particulars: for Bone calcium mobilization (change from vehicle, mg/dL): vehicle subtracted. On the procedure:
(§1) Male, weanling Sprague-Dawley rats were placed on Diet 11 (0.47% Ca) diet+AEK oil for one week followed by Diet 11 (0.02% Ca)+AEK oil for 3 weeks. The rats were then switched to a diet containing 0.47% Ca for one week followed by two weeks on a diet containing 0.02% Ca. Dose administration began during the last week on 0.02% calcium diet. Four consecutive intraperitoneal doses were given approximately 24 hours apart. Twenty-four hours after the last dose, blood was collected from the severed neck and the concentration of serum calcium determined as a measure of bone calcium mobilization. The first 10 cm of the intestine was also collected for intestinal calcium transport analysis using the everted gut sac method.

The subject of assay [2] is Sprague-Dawley rats. Particulars: cited from earlier work; for Bone calcium mobilization (change from vehicle, mg/dL): as reported by Grzywacz et al. 2007.
Assay [3] has as its system Sprague-Dawley rats. As to conditions: cited from earlier work; for Intestinal calcium transport (change from vehicle, serosal/mucosal ratio): as reported by Grzywacz et al. 2007.
Assay [4] has as its target T1, recombinant vitamin D receptor (Rattus norvegicus, UniProt P13053).
T1 construct: Fun-length recombinant rat receptor was expressed in E. coli; histidine tag (C); made in house; host or cells: E. coli BL21(DE3) Codon Plus RIL
T1 sequence (P13053 1-423): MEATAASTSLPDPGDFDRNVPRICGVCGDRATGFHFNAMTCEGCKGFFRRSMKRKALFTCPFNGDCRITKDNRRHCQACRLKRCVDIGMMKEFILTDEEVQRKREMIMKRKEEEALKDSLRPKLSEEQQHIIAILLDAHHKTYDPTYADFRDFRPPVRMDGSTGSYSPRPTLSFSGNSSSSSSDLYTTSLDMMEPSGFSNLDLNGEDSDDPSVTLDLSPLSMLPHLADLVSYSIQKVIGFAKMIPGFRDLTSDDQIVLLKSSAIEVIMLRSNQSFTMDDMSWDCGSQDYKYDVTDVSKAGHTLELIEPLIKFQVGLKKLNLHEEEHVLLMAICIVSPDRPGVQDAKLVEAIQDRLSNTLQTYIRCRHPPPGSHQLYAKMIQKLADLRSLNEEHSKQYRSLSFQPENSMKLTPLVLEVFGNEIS
In words: Vitamin D receptor binding (competitive, 3H-1,25(OH)2D3). On the procedure:
Fun-length recombinant rat receptor was expressed in E. coli BL21(DE3) Codon Plus RIL cells and purified to homogeneity using two different column chromatography systems. The first system was a nickel affinity resin that utilizes the C-terminal histidine tag on this protein. The protein that was eluted from this resin was further purified using ion exchange chromatography (S-Sepharose Fast How). Aliquots of the purified protein were quick frozen in liquid nitrogen and stored at −80° C. until use. For use in binding assays, the protein was diluted in TEDK50 (50 mM […], 1.5 mM EDTA, pH 7.4, 5 mM DTT, 150 mM KCl) with 0.1% Chaps detergent. The receptor protein and ligand concentration was optimized such that no more than 20% of the added radiolabeled ligand was bound to the receptor.
Unlabeled ligands were dissolved in ethanol and the concentrations determined using UV spectrophotometry (1,25(OH)2D3: molar extinction coefficient=18,200 and λmax=265 nm; Analogs: molar extinction coefficient=42,000 and λmax=252 nm). Radiolabeled ligand (^3H-1,25(OH)2D3, ˜159 Ci/mmole) was added in ethanol at a final concentration of 1 nM.
Radiolabeled and unlabeled ligands were added to […] of the diluted protein at a final ethanol concentration of ≦10%, mixed and incubated overnight on ice to reach binding equilibrium. […] Total binding was determined from the tubes containing only radiolabeled ligand.

A further assay deals with HL-60 cells. Description: HL-60 differentiation (nitro blue tetrazolium reduction). In kind it is cell-based, human. As to conditions: FIG. 2. On the procedure:
The study drugs were dissolved in ethanol and the concentrations determined using UV spectrophotometry. Serial dilutions were prepared so that a range of drug concentrations could be tested without changing the final concentration of ethanol ([…]) present in the cell cultures.
Human promyelocytic leukemia (HL60) cells were grown in RPMI-1640 medium containing 10% fetal bovine serum. The cells were incubated at 37° C. in the presence of 5% CO2.
HL60 cells were plated at 1.2×10^5 cells/ml. Eighteen hours after plating, cells in duplicate were treated with drug. Four days later, the cells were harvested and a nitro blue tetrazolium reduction assay was performed (Collins et al., 1979; J. Exp. Med. 149:969-974). The percentage of differentiated cells was determined by counting a total of 200 cells and recording the number that contained intracellular black-blue formazan deposits. Verification of differentiation to monocytic cells was determined by measuring phagocytic activity (data not shown).

The subject of assay [5] is 24-hydroxylase (24OHase) gene promoter. In words: In vitro transcription assay (24-hydroxylase promoter-luciferase in ROS 17/2.8 bone cells). In kind it is cell-based. Particulars: FIG. 3. On the procedure:
Transcription activity was measured in ROS 17/2.8 (bone) cells that were stably transfected with a 24-hydroxylase (24OHase) gene promoter upstream of a luciferase reporter gene (Arbour et al., 1998). Cells were given a range of doses. Sixteen hours after dosing the cells were harvested and luciferase activities were measured using a luminometer. RLU=relative luciferase units.

Assay [6] relates to Sprague-Dawley rats. Description: Intestinal calcium transport (everted gut sac method). In kind it is in vivo, rat. As to conditions: for Intestinal calcium transport (change from vehicle, serosal/mucosal ratio): vehicle subtracted. On the procedure: as §1
Setting [7] is: 260 pmol dose, data of Grzywacz et al. 2007.

Regarding `C=C1[C@H](O)CC(=C/C=C2\CCC[C@]3(C)[C@@H]([C@@H](C)CCCC(C)C)CC[C@@H]23)C[C@H]1O` [26Me, 2-methylene-19-nor-(20S)-1α-hydroxyvitamin D3], the “Bone calcemic activity as multiple of that of 26N” value in the assay on Sprague-Dawley rats [1] (at 2340 pmol versus 26N at the higher dose of 7020 pmol) was ~10 times. Further, in the assay with Sprague-Dawley rats [2] (setting [7]), the “Bone calcium mobilization activity, in words” value was “significant activity”. The “Bone calcium mobilization (change from vehicle, mg/dL)” value in the assay on Sprague-Dawley rats [2] (dose level 87 pmol) was 2.0 mg/dL; with Sprague-Dawley rats [2] (dose level 260 pmol), 4.0 mg/dL; with Sprague-Dawley rats [2] (dose level 780 pmol) it was 5.3 mg/dL; in the assay on Sprague-Dawley rats [2] (dose level 2340 pmol), 5.6 mg/dL. In the assay on Sprague-Dawley rats [3] (setting [7]), the “Intestinal calcium transport activity, in words” value is “significant activity”. Besides, the “Intestinal calcium transport (change from vehicle, serosal/mucosal ratio)” value in the assay with Sprague-Dawley rats [3] (dose level 87 pmol) is 6.6 serosal/mucosal ratio; with Sprague-Dawley rats [3] (dose level 260 pmol) it was 5.3 serosal/mucosal ratio; in the assay with Sprague-Dawley rats [3] (dose level 780 pmol), 2.3 serosal/mucosal ratio; in the assay with Sprague-Dawley rats [3] (dose level 2340 pmol), 5.4 serosal/mucosal ratio.

Take `C=C1[C@H](O)CC(=C/C=C2\CCC[C@@]3(C)C2CCC3[C@@H](C)CCCCC)C[C@H]1O` (stereo in doubt) [26N, 2-methylene-19,26-nor-(20S)-1α-hydroxyvitamin D3]: the “Binding to the nuclear vitamin D receptor compared with 1,25(OH)2D3 (in words)” value in assay [4] (FIG. 1) is recorded as “same affinity as 1,25(OH)2D3”; in assay [4] (FIG. 1, listed as 2-Methylene-19,26-nor-(20S)-1α-hydroxyvitamin D3) it was “approximately equally effective as 1,25-(OH)2D3”. Further, the “Potency in causing differentiation of HL-60 cells into monocytes compared with 1,25(OH)2D3 (in words)” value with HL-60 cells was “same potency as 1,25(OH)2D3”; with HL-60 cells (listed as 2-Methylene-19,26-nor-(20S)-1α-hydroxyvitamin D3) it was “same potency as 1,25-(OH)2D3”. For the same compound, the “Potency in increasing transcription of the 24-hydroxylase gene compared with 1,25(OH)2D3 (in words)” value in assay [5] (ROS 17/2.8 bone cells) is listed as “about one log less potent than 1,25(OH)2D3”. Also, the “Times less potent than 1,25-(OH)2D3 in stimulating 24-OHase gene expression” value in assay [5] (bone cells) is listed as “about 10 times”. Further, in the assay with Sprague-Dawley rats [1] (260 pmol dose), the “Bone calcium mobilization (calcemic) activity, in words” value was “essentially no calcemic activity”. The “Bone calcium mobilization activity, in words” value in the assay on Sprague-Dawley rats [1] (7020 pmol) is “little bone calcium mobilization activity”. In addition, the “Times less active than 1,25-(OH)2D3 on bone calcium mobilization” value with Sprague-Dawley rats [1] (as shown at the dose of 7020 pmol, FIG. 4B) was ~30 times. Besides, the “Calcemic activity (bone calcium mobilization), in words” value with Sprague-Dawley rats [1] (overall, FIGS. 4A, 4B) is on record as “very low”. Moreover, the “Times less potent than 1,25(OH)2D3 in releasing bone calcium stores” value in the assay on Sprague-Dawley rats [1] (rat, FIGS. 4A and 4B) is listed as “approximately 30 times”. Moreover, the “Bone calcium mobilization (change from vehicle, mg/dL)” value was -0.1 mg/dL in the assay with Sprague-Dawley rats [1] (rat, dose level 260 pmol, four intraperitoneal doses); 0.6 mg/dL and 0.8 mg/dL in the assay on Sprague-Dawley rats [1] (rat, dose level 7020 pmol); 4.0 mg/dL in the assay with Sprague-Dawley rats [1] (rat, dose level 35100 pmol). For the same compound, the “Intestinal calcium transport (calcemic) activity, in words” value in the assay on Sprague-Dawley rats [6] (260 pmol dose) was “essentially no calcemic activity”. Moreover, the “Calcemic activity (intestinal calcium transport), in words” value in the assay on Sprague-Dawley rats [6] (overall, FIGS. 5A, 5B) was “very low; also recorded: noticeably less active than 1,25-(OH)2D3”. In the assay on Sprague-Dawley rats [6] (rat, FIGS. 5A and 5B), the “Times less potent than 1,25(OH)2D3 in promoting active calcium transport in the rat gut” value is on record as “at least 10 times”. Also, the “Intestinal calcium transport (change from vehicle, serosal/mucosal ratio)” value in the assay on Sprague-Dawley rats [6] (rat, dose level 260 pmol) is 0.1 serosal/mucosal ratio; in the assay with Sprague-Dawley rats [6] (rat, dose level 7020 pmol), 8.7 serosal/mucosal ratio and 7.2 serosal/mucosal ratio; in the assay with Sprague-Dawley rats [6] (rat, dose level 35100 pmol), 4.6 serosal/mucosal ratio.
